Measurements published in patent publication US8501446B2 (Vertex Pharmaceuticals Incorporated, priority 2004, dated 2013).

Key:
Assay type in all cases: biochemical
JAK2 = JAK2 (Homo sapiens, UniProt O60674); experiment: JAK2 inhibition assay (radioactive enzyme assay, as for JAK3); conditions: average Ki if more than one value determined
How it was run: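 Both kinases: poly(Glu)4Tyr substrate in 100 mM HEPES pH 7.4, 10 mM MgCl2, 1 mM DTT. Run 20 min at 25° C, TCA stop, filter-bound ³³P counted, Ki(app) fitted after background subtraction. JAK3: final [γ-³³P]ATP 5 μM, enzyme added as 2 nM solution. JAK2: final poly(Glu)4Tyr 15 μM, final ATP 12 μM.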

ROCK = ROCK (Homo sapiens, UniProt Q13464); experiment: ROCK inhibition assay, standard radioactive enzyme assay ("33P")
ROCK, sequence (Q13464 whole entry): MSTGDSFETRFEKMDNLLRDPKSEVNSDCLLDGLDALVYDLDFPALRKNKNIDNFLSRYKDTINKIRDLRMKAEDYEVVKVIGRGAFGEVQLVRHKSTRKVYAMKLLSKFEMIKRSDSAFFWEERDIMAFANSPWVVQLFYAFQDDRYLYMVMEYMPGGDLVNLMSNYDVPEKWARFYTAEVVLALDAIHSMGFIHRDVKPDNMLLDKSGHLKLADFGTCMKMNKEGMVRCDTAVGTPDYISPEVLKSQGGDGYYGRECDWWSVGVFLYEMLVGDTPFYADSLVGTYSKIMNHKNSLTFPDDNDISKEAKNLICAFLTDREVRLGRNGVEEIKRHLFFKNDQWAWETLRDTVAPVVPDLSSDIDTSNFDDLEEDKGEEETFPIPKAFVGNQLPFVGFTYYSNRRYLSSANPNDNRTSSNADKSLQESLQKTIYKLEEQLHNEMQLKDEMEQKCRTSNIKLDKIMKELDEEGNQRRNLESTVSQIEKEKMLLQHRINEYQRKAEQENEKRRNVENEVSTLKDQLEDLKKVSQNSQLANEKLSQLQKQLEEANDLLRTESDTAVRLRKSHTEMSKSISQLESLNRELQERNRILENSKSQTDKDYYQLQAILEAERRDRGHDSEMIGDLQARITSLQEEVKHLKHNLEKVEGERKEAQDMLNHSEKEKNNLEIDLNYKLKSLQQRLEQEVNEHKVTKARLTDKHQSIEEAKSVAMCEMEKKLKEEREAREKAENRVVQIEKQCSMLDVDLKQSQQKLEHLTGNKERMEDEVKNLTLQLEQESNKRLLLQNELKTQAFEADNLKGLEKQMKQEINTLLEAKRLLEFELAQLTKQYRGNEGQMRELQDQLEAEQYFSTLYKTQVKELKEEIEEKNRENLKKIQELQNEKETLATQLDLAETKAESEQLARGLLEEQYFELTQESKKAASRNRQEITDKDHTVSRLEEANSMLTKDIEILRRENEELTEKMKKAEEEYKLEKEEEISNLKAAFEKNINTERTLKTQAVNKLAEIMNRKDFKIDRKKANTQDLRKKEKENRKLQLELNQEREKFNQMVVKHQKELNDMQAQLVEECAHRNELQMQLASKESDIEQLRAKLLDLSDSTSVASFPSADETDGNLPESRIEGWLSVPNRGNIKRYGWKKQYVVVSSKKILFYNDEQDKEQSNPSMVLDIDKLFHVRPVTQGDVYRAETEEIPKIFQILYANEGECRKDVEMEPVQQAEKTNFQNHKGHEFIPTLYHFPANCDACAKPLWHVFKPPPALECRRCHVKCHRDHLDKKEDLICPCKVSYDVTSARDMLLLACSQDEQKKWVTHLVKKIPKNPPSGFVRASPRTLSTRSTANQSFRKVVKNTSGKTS
Method: Some compounds were screened for their ability to inhibit ROCK using a standard radioactive enzyme assay. Assays were carried out in a solution containing 100 mM HEPES (pH 7.5), 10 mM MgCl2, 25 mM NaCl, 2 mM DTT, and 1.5% DMSO. Final substrate concentrations in the assay were 13 μM [γ-^33P] ATP (25 mCi ^33P ATP/mmol ATP, Perkin Elmer, Cambridge, Mass./Sigma Chemicals, St Louis, Mo.) and 27 μM Myelin Basic Protein (MBP). Final enzyme concentration in the assay was 5 nM ROCK. Assays were carried out at room temperature. 1.5 μl of DMSO stock containing serial dilutions of the compound of the present invention (concentrations ranging from 10 μM to 2.6 nM) was placed in a 96 well plate. 50 μl of Solution 1 (100 mM HEPES (pH 7.5), 10 mM MgCl2, […]) was added to the plate. The reaction was initiated by addition of 50 μl of Solution 2 (100 mM HEPES (pH 7.5), 10 mM MgCl2, 4 mM DTT, […] and 10 nM ROCK). After 2 hours the reaction was quenched with 50 μL of 30% trichloroacetic acid (TCA, Fisher) containing 9 mM ATP. Transfer of 140 μL of the quenched reaction to a glass fiber filter plate (Corning, Cat. No. 3511) was followed by washing 3 times with 5% TCA. 50 μL of Optima Gold scintillation fluid (Perkin Elmer) was added and the plates were counted on a Top Count (Perkin Elmer). After removing mean background values for all of the data points the data was fit using Prism software to obtain a Ki(app).

ROCK I (AA 6-553) = biological target: T1, ROCK I (AA 6-553) (Homo sapiens, UniProt Q13464); experiment: ROCK inhibition assay, standard coupled enzyme system ("Enzyme"); conditions: enzyme-linked assay
T1 construct: ROCK I (AA 6-553)
T1 sequence (Q13464 6-553, species assumed): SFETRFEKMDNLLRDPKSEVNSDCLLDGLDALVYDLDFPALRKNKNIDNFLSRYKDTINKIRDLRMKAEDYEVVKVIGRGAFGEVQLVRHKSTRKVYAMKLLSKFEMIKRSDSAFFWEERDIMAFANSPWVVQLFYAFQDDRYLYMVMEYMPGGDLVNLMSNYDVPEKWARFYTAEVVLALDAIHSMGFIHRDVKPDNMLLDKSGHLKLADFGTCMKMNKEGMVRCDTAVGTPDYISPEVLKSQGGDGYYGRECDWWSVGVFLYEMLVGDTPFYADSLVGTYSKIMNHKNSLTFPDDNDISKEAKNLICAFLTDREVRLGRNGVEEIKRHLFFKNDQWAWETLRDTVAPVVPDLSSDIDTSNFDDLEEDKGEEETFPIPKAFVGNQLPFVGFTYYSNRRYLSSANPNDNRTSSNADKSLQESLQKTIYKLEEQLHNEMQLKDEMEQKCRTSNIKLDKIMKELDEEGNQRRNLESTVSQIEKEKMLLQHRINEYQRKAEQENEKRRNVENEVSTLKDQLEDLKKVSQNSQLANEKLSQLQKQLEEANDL
How it was run: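 ROCK I (AA 6-553) at 45 nM and 30 °C with 45 μM ATP and 200 μM peptide, in 100 mM HEPES pH 7.5, 10 mM MgCl2, 25 mM NaCl, 2 mM DTT, 1.5% DMSO. ADP output read by a PK/LDH coupled system: 2.5 mM PEP, 350 μM NADH, 30 μg/ml PK, 10 μg/ml LDH.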

Aurora-C = biological target: T2, Aurora-C (Homo sapiens, UniProt Q9UQB9); experiment: Aurora-C inhibition assay, coupled enzyme system as for Aurora-A; conditions: average Ki if more than one value determined
T2 sequence (Q9UQB9 1-309): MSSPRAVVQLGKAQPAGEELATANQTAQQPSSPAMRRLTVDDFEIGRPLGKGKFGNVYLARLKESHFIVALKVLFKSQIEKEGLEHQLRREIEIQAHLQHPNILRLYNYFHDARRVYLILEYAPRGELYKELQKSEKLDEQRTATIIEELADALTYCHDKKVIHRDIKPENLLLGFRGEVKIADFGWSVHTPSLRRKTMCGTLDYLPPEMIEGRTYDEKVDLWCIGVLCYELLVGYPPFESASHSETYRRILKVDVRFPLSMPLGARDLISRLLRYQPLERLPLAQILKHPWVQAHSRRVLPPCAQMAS
Method: Compounds were screened for their ability to inhibit full length Aurora-A (AA 1-403) activity using a standard coupled enzyme system (Fox et al., Protein Sci. 7, pp. 2249 (1998)). Reactions were carried out in a solution containing 100 mM HEPES (pH 7.5), 10 mM MgCl2, 25 mM NaCl, 300 μM NADH, 1 mM DTT and 3% DMSO. Final substrate concentrations in the assay were 200 μM ATP (Sigma Chemicals, St Louis, Mo.) and 800 μM peptide (LRRASLG, American Peptide, Sunnyvale, Calif.). Reactions were carried out at 30° C. and 35 nM Aurora-A. Final concentrations of the components of the coupled enzyme system were 2.5 mM phosphoenolpyruvate, 200 μM NADH, 60 μg/ml pyruvate kinase and 20 μg/ml lactate dehydrogenase.
An assay stock buffer solution was prepared containing all of the reagents listed above with the exception of ATP and the test compound of interest. The assay stock buffer solution (60 μl) was incubated in a 96 well plate with 2 μl of the test compound of interest at final concentrations spanning 0.002 μM to 30 μM at 30° C. for 10 min. Typically, a 12 point titration was conducted by preparing serial dilutions (from 1 mM compound stocks) with DMSO of the test compounds in daughter plates. The reaction was initiated by the addition of 5 μl of ATP (final concentration 200 μM). Rates of reaction were obtained using a Molecular Devices Spectramax plate reader (Sunnyvale, Calif.) over 10 min at 30° C. The Ki values were determined from the rate data as a function of inhibitor concentration using computerized nonlinear regression (Prism 3.0, Graphpad Software, San Diego, Calif.). Aurora-C activity was screened in a similar manner using Aurora-C protein. Aurora-B activity was screened using a radioactive assay, such as described in Examples 1 and 2, but using Aurora-B protein.

Aurora-B = Aurora-B (Homo sapiens, UniProt Q96GD4); experiment: Aurora-B inhibition assay, radioactive assay; conditions: average Ki if more than one value determined
Aurora-B, sequence (Q96GD4 whole entry): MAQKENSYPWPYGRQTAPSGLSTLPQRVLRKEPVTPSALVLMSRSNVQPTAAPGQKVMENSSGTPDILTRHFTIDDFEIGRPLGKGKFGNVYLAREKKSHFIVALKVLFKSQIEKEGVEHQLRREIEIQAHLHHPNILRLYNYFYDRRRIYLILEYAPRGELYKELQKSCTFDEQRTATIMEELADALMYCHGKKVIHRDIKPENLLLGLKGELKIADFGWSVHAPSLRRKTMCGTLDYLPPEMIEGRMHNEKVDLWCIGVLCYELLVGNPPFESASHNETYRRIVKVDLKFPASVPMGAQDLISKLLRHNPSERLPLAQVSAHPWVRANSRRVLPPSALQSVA
How it was run: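 Radiometric [γ-33P]ATP kinase assay run as described for JAK3/ROCK but with Aurora-B protein; 33P incorporation into substrate measured by filter capture and scintillation counting after TCA quench. Background-subtracted data fit to give Ki(app).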

JAK2, sequence (O60674 whole entry, species assumed): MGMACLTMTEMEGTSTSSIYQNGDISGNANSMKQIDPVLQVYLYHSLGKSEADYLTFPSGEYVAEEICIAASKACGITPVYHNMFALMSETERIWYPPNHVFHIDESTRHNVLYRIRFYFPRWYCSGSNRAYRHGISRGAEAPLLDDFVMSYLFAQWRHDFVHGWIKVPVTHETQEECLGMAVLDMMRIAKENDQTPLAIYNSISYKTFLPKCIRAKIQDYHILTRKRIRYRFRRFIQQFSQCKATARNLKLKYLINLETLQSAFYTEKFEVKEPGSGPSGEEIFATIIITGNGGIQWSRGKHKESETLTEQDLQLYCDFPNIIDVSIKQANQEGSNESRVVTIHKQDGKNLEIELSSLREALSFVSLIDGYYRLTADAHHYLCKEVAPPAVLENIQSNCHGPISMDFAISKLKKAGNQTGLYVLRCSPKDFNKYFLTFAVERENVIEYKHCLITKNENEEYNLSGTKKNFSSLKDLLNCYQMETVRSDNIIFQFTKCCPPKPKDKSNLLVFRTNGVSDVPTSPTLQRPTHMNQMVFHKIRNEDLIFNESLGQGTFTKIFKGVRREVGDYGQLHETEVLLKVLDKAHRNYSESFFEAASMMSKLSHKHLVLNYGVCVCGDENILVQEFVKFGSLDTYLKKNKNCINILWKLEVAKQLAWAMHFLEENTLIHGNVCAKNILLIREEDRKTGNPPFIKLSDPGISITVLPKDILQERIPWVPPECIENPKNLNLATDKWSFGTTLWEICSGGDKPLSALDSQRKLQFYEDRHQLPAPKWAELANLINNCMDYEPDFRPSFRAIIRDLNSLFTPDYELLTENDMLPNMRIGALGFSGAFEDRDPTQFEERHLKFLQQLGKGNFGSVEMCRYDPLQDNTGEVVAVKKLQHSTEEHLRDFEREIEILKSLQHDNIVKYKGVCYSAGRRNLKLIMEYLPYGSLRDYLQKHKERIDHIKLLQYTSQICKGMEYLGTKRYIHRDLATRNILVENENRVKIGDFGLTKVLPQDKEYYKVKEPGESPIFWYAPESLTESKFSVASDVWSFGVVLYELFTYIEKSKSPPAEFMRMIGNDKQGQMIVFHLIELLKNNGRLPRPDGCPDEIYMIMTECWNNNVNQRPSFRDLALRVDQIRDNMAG

Row | Ki (JAK2) [nM] | Ki (ROCK) [nM] | Ki (ROCK I (AA 6-553)) [nM] | Ki (Aurora-C) [nM] | Ki (Aurora-B) [nM] | SMILES
1 | < 500 | 500 to 5000 | 500 to 5000 | – | – | COc1cnc2[nH]cc(-c3cccc(N4C[C@@H](C)N(C(C)=O)[C@@H](C)C4)n3)c2c1 [Compound 18]
2 | < 500 | < 500 | < 500 | – | – | CC(=O)N1[C@H](C)CN(c2cccc(-c3c[nH]c4ncc(Cl)cc34)n2)C[C@@H]1C [Compound 19]
3 | < 500 | < 500 | < 500 | – | – | CCOC(=O)N1CCCN(c2nccc(-c3c[nH]c4ncc(OC)cc34)n2)CC1 [Compound 33]
4 | < 500 | < 500 | < 500 | – | – | COC(=O)c1cnc2[nH]cc(-c3cccc(N4C[C@@H](C)N(C(C)=O)[C@@H](C)C4)n3)c2c1 [Compound 35]
5 | – | – | 500 to 5000 | < 500 | < 500 | C[C@H](Nc1nc(-c2c[nH]c3ncc(Cl)cc23)ncc1F)C(=O)NCC(F)(F)F [Compound 369]
6 | < 500 | – | 500 to 5000 | – | < 500 | C[C@H](Nc1cccc(-c2c[nH]c3ncc(Cl)cc23)n1)c1ccc(F)cc1 [Compound 395]
